Measurements reported in US4432973A, “Benzoyl- and α-hydroxybenzyl-phenyl-glycosides and application thereof in therapeutics” (Societe de Recherches Industrielles (S.O.R.I.), priority 1980, dated 1984).

How the values were obtained:
[1] = Acute toxicity in the mouse by the I.P. route; format: in vivo; details: for LD50: read-out: DL-50 (lethal dose involving the death of half of the animals)
Text: The acute toxicity was studied in the mouse by the I.P. route. It is expressed in the form of DL-50 (lethal dose involving the death of half of the animals) or DL-0 (maximum non-lethal dose).

[2] = Anti-hypoxic activity: survival to hypoxia (nitrogen-oxygen 95:5); format: in vivo, mouse (Swiss male); details: I.P., 1/10th of LD-50 or 100 mg/kg when LD-0 ≥ 800 mg/kg; up to 15 minutes; mouse
Method: The experiment is carried out on batches of 20 Swiss male mice weighing from 20 to 30 g. Each product to be tested is administered to the mice by intraperitoneal route at a dose corresponding to 1/10th of the LD-50 or at a dose of 100 mg/kg when the LD-0 is higher than or equal to 800 mg/kg. The mice are placed in a nitrogen-oxygen (95:5) v/v atmosphere. The survival time of the mice is then measured up to 15 minutes maximum.
The results shown in Table VII are expressed in percentage of survival with respect to a non-treated control batch and a batch treated with an anti-hypoxic reference product [specialty known under the trade name of "Duxil" and which is constituted by a mixture of Almitrine bis-methanesulfonate and of Raubasine in the weight ratio 3:1], the anti-hypoxic reference product being administered at the dose of 18 mg/kg I.P.

[3] = Anti-ulcer activity: ulcer caused by aspirin; format: in vivo, rat (male Wistar); details: aspirin 192 mg/kg per os, standardised to control batch and cimetidine (index 1)
Method: The experiment is carried out on male Wistar rats of 180 to 200 g. The products to be tested are administered at 100 mg/kg I.P. (unless indicated to the contrary in Table IV).
At t=0, the rats are made to fast and a first administration of the product to be tested is made.
At t=18 hours, 2 ml of an ulcer-forming suspension with 192 mg of aspirin/kg are administered per os then a second administration of the product to be tested is made.
At t=22 hours, the animals are sacrificed and the ulcers are marked as follows: small point-like ulcers: mark 1 more extensive ulcers: mark 3 highly extensive or very deep ulcers: mark 9
This marking is standardised with respect to a control batch and to cimetidine (a reference product) to which index 1 has been allocated.

| SMILES | Ulcer index ([3]; 100 mg/kg I.P.) | DL-0 (maximum non-lethal dose) ([1]; I.P.) | further results |
| --- | --- | --- | --- |
| Cc1ccc(C(O)c2cccc(O[C@@H]3OC[C@@H](O)[C@H](O)[C@H]3O)c2)cc1 (single isomer, unassigned) [Example 107] |  |  | DL-50 (lethal dose involving the death of half of the animals) ([1]; I.P.): 550 mg/kg IP |
| O=C(c1ccc(O[C@@H]2OC[C@@H](O)[C@H](O)[C@H]2O)cc1)c1ccc(C(F)(F)F)cc1 [Example 11] |  |  | Survival (survival percentage to hypoxic aggression) [2]: ++ (from 50 to 79%); DL-0 (maximum non-lethal dose) ([1]; in vivo, ip): > 800 mg/kg IP; Ulcer index ([3]; 200 mg/kg P.O.): 0 |
| O=C(c1ccc(O[C@@H]2OC[C@@H](O)[C@H](O)[C@H]2O)cc1)c1cccc(C(F)(F)F)c1 [Example 13] | 0.46 |  | Survival (survival percentage to hypoxic aggression) [2]: ++ (from 50 to 79%); LD50 ([1]; in vivo, ip, I.P.): 170 mg/kg |
| COc1cccc(C(=O)c2ccc(O[C@@H]3OC[C@@H](O)[C@H](O)[C@H]3O)cc2)c1 [Example 16] | 0.73 |  | Survival (survival percentage to hypoxic aggression) [2]: + (from 30 to 49%); DL-0 (maximum non-lethal dose) ([1]; in vivo, ip): > 800 mg/kg IP |
| O=C(c1ccc(O[C@@H]2O[C@H](CO)[C@H](O)[C@H](O)[C@H]2O)cc1)c1ccc([N+](=O)[O-])cc1 [Example 20] | 0.62 | > 800 mg/kg IP |  |
| Cc1cc(C(=O)c2ccc(Cl)cc2)cc(C)c1O[C@@H]1OC[C@@H](O)[C@H](O)[C@H]1O [Example 22] | 1.46 |  | LD50 ([1]; in vivo, ip, I.P.): 500 mg/kg |
| Cc1cc(C(=O)c2ccccc2)cc([N+](=O)[O-])c1O[C@@H]1OC[C@@H](O)[C@H](O)[C@H]1O [Example 25] | 0.54 |  | LD50 ([1]; in vivo, ip, I.P.): 330 mg/kg |
| Cc1cc(O)ccc1C(=O)c1cc(C)c(O[C@@H]2O[C@H](CO)[C@@H](O)[C@H](O)[C@H]2O)c(C)c1 [Example 27] | 0.42 | > 800 mg/kg IP |  |
| Cc1cc(C(=O)c2ccc(Cl)cc2)ccc1O[C@@H]1OC[C@@H](O)[C@H](O)[C@H]1O [Example 28] |  |  | Survival (survival percentage to hypoxic aggression) [2]: ++ (from 50 to 79%); DL-0 (maximum non-lethal dose) ([1]; in vivo, ip): > 800 mg/kg IP |
| O=C(c1ccc(O[C@@H]2OC[C@@H](O)[C@H](O)[C@H]2O)cc1)c1ccc(Cl)cc1Cl [Example 31] | 1.04 | > 800 mg/kg IP |  |
| Cc1cc(C)c(C(=O)c2ccc(O[C@@H]3OC[C@@H](O)[C@H](O)[C@H]3O)cc2)c(C)c1 [Example 32] | 0.54 | > 800 mg/kg IP |  |
| COc1cc(C(=O)c2ccc(O[C@@H]3OC[C@@H](O)[C@H](O)[C@H]3O)cc2)cc(OC)c1OC [Example 33] | 0.46 | > 800 mg/kg IP |  |
| CC(=O)N[C@H]1[C@H](Oc2c(C)cc(C(=O)c3c(C)cccc3C)cc2C)O[C@H](CO)[C@@H](O)[C@@H]1O [Example 37] | 1.02 |  | LD50 ([1]; in vivo, ip, I.P.): 600 mg/kg |
| CC(=O)O[C@@H]1[C@@H](OC(C)=O)[C@H](Oc2ccc(C(=O)c3ccc(N=C=S)cc3)cc2)OC[C@H]1OC(C)=O [Example 42] |  | > 800 mg/kg IP |  |
| O=C(c1ccc(Cl)cc1)c1cccc(O[C@@H]2OC[C@@H](O)[C@H](O)[C@H]2O)c1 [Example 48] | 0.75 |  | LD50 ([1]; in vivo, ip, I.P.): 220 mg/kg |
| Cc1ccc(C(=O)c2cccc(O[C@@H]3OC[C@@H](O)[C@H](O)[C@H]3O)c2)cc1 [Example 49] | 1.21 | > 800 mg/kg IP |  |
| Cc1ccccc1C(=O)c1cccc(O[C@@H]2OC[C@@H](O)[C@H](O)[C@H]2O)c1 [Example 52] |  | > 800 mg/kg IP |  |
| O=C(c1ccc(C(F)(F)F)cc1)c1cccc(O[C@@H]2OC[C@@H](O)[C@H](O)[C@H]2O)c1 [Example 53, [3-(4-trifluoromethylbenzoyl)-phenyl]-β-D-xylopyranoside] | 0.64 |  | LD50 ([1]; in vivo, ip, I.P.): 550 mg/kg |
| COC(=S)Nc1ccc(C(=O)c2ccc(O[C@@H]3OC[C@@H](O)[C@H](O)[C@H]3O)cc2)cc1 [Example 65] |  | > 800 mg/kg IP |  |

| SMILES | Ulcer index ([3]; 100 mg/kg I.P.) | DL-0 (maximum non-lethal dose) ([1]; I.P.) | further results |
| --- | --- | --- | --- |
| CC(=O)N[C@H]1[C@H](Oc2c(C)cc(C(=O)c3ccccc3C)cc2C)O[C@H](COS(=O)(=O)O)[C@@H](OS(=O)(=O)O)[C@@H]1OS(=O)(=O)O [Example 68] |  | > 800 mg/kg IP |  |
| O=C(c1ccc(O[C@@H]2OC[C@@H](OS(=O)(=O)O)[C@H](OS(=O)(=O)O)[C@H]2OS(=O)(=O)O)cc1)c1cccc([N+](=O)[O-])c1 [Example 72] | 0.47 |  | LD50 ([1]; in vivo, ip, I.P.): 650 mg/kg |
| CC(=O)O[C@@H]1[C@@H](OC(C)=O)[C@H](Oc2ccc(C(=O)c3c(C)cc(C)cc3C)cc2)OC[C@H]1OC(C)=O [Example 73] | 0.52 | > 800 mg/kg IP |  |
| CC(=O)O[C@@H]1[C@@H](OC(C)=O)[C@H](Oc2ccc(C(=O)c3ccc(Cl)cc3Cl)cc2)OC[C@H]1OC(C)=O [Example 74] | 0.91 | > 800 mg/kg IP |  |
| CC(=O)O[C@@H]1[C@@H](OC(C)=O)[C@H](Oc2ccc(C(=O)c3ccccc3[N+](=O)[O-])cc2)OC[C@H]1OC(C)=O [Example 78] |  | > 800 mg/kg IP |  |
| CC(=O)O[C@@H]1[C@@H](OC(C)=O)[C@H](Oc2ccc(C(=O)c3cccc([N+](=O)[O-])c3)cc2)OC[C@H]1OC(C)=O [Example 80] | 1.00 | > 800 mg/kg IP |  |
| CC(=O)O[C@@H]1[C@@H](OC(C)=O)[C@H](Oc2cccc(C(=O)c3ccc(Cl)cc3)c2)OC[C@H]1OC(C)=O [Example 82] |  | > 800 mg/kg IP |  |
| CC(=O)O[C@@H]1[C@@H](OC(C)=O)[C@H](Oc2cccc(C(=O)c3ccccc3)c2)OC[C@H]1OC(C)=O [Example 83] |  |  | Survival (survival percentage to hypoxic aggression) [2]: ++ (from 50 to 79%); DL-0 (maximum non-lethal dose) ([1]; in vivo, ip): > 800 mg/kg IP |
| COc1cc(C(=O)c2ccc(O[C@@H]3OC[C@@H](OC(C)=O)[C@H](OC(C)=O)[C@H]3OC(C)=O)cc2)cc(OC)c1O [Example 84] |  | > 800 mg/kg IP |  |
| Cc1ccc(C(O)c2ccc(O[C@@H]3OC[C@@H](O)[C@H](O)[C@H]3O)cc2)cc1 (stereo partly shown) [Example 90] | 0.57 | > 800 mg/kg IP |  |
| OC(c1ccc(O[C@@H]2OC[C@@H](O)[C@H](O)[C@H]2O)cc1)c1cccc(C(F)(F)F)c1 (stereo partly shown) [Example 93] |  | > 800 mg/kg IP |  |
| OC(c1ccc(Br)cc1)c1ccc(O[C@@H]2OC[C@@H](O)[C@H](O)[C@H]2O)cc1 (stereo partly shown) [Example 95] | 0.52 | > 800 mg/kg IP |  |
| CC(=O)N[C@H]1[C@H](Oc2ccc(C(=O)c3ccccc3Cl)cc2)O[C@H](CO)[C@@H](O)[C@@H]1O [Example 120] |  |  | Survival (survival percentage to hypoxic aggression) [2]: +++ (higher than or equal to 80%); DL-0 (maximum non-lethal dose) ([1]; in vivo, ip): > 800 mg/kg IP |
| O=C(c1ccc(Cl)cc1)c1ccc(O[C@@H]2O[C@H](CO)[C@@H](O)[C@H](O)[C@H]2O)cc1 [Example 124] |  |  | Survival (survival percentage to hypoxic aggression) [2]: + (from 30 to 49%); DL-0 (maximum non-lethal dose) ([1]; in vivo, ip): > 800 mg/kg IP |
| O=C(c1ccccc1)c1ccc(O[C@@H]2O[C@H](CO)[C@@H](O)[C@H](O)[C@H]2O)cc1 [Example 126] |  |  | Survival (survival percentage to hypoxic aggression) [2]: + (from 30 to 49%); DL-0 (maximum non-lethal dose) ([1]; in vivo, ip): > 800 mg/kg IP |
| Cc1ccc(C(=O)c2ccc(O[C@@H]3O[C@H](CO)[C@@H](O)[C@H](O)[C@H]3O)cc2)cc1 [Example 127] |  |  | Survival (survival percentage to hypoxic aggression) [2]: ++ (from 50 to 79%); LD50 ([1]; in vivo, ip, I.P.): 700 mg/kg |
| CC(=O)N[C@H]1[C@H](Oc2ccc(C(O)c3ccc(C)cc3)cc2)O[C@H](CO)[C@@H](O)[C@@H]1O (stereo partly shown) [Example 128] |  |  | Survival (survival percentage to hypoxic aggression) [2]: ++ (from 50 to 79%); DL-0 (maximum non-lethal dose) ([1]; in vivo, ip): > 800 mg/kg IP |
| O=[N+]([O-])c1ccc(C(O)c2ccc(O[C@@H]3O[C@H](CO)[C@@H](O)[C@H](O)[C@H]3O)cc2)cc1 (stereo partly shown) [Example 129] |  | > 800 mg/kg IP |  |
